US8791132B2, “Compounds and methods for treatment of hypertension” (Medivation Technologies, Inc., priority 2011, dated 2014)
Where “and” joins values, the source holds several entries; their conditions need not be identical. Equal entries are not always repeated.

Tests used:
[1] = target: T1, human recombinant adrenergic α2B receptor (Homo sapiens, UniProt P18089); experiment: Radioligand binding, adrenergic α2B ([3H]Rauwolscine); details: for Percentage inhibition of ligand binding, Adrenergic α2B / inhibition at 0.03 µM: [3H]Rauwolscine, repeat assays, each datapoint shown; for Ki: read-out: Ki α2B; for inhibition at 0.03 µM: read-out: Percentage inhibition of ligand binding, Adrenergic α2B
T1 construct: expressed in transfected cells; host or cells: CHO-K1
T1 sequence (P18089 1-450): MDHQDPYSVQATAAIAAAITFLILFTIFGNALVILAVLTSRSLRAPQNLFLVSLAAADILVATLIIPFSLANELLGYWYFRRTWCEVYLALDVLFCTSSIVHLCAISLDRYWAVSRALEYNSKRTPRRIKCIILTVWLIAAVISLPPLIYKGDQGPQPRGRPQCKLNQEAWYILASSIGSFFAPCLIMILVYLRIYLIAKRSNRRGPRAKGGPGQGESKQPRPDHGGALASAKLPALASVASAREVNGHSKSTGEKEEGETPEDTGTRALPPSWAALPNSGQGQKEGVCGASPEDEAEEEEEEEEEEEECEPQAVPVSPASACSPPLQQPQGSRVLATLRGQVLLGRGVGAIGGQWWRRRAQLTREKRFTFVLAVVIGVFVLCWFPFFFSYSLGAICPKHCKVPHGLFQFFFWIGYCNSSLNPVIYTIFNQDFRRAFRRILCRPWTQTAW
How it was run: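 Receptor expressed in CHO-K1 cells, assayed in 50 mM Tris-HCl pH 7.4 with 12.5 mM MgCl2, 1 mM EDTA and 0.2% BSA. Compounds were incubated with 2.5 nM [3H]Rauwolscine for 60 min at 25° C; 10 μM Prazosin defined non-specific binding. Filter counting gave percent inhibition of specific binding.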

[2] = target: T2, rat adrenergic α1B receptor (Rattus norvegicus, UniProt P15823); experiment: Radioligand binding, adrenergic α1B ([3H]Prazosin); details: [3H]Prazosin, repeat assays, each datapoint shown; for Percentage inhibition of ligand binding, Adrenergic α1B / inhibition at 0.1 µM: compound at 0.1 μM; for Percentage inhibition of ligand binding, Adrenergic α1B: 0.1 µM; for inhibition at 0.03 µM: compound at 0.03 μM; for inhibition at 0.03 µM / inhibition at 0.1 µM: read-out: Percentage inhibition of ligand binding, Adrenergic α1B
T2 construct: rat adrenergic α1B receptor obtained from Wistar Rat liver; from tissue; host or cells: Wistar rat liver
T2 sequence (P15823 1-515): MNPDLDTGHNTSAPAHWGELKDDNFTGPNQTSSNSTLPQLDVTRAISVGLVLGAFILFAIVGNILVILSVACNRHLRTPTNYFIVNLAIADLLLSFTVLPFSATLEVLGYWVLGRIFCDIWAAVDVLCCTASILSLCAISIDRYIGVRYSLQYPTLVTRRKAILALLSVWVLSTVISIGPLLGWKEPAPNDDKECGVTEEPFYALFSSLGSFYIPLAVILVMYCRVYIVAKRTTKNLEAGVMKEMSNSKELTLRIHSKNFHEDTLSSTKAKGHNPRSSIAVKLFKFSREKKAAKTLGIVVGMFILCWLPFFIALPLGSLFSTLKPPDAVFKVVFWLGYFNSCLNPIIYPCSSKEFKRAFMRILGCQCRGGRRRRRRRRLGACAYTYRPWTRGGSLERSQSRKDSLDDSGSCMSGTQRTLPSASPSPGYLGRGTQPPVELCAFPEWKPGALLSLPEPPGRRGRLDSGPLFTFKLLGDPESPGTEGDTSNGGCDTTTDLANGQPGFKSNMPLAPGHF
How it was run: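 Specific binding, taken as total minus that remaining with 10 μM phentolamine, is measured after filtration and counting. Rat liver receptor preparation and 0.25 nM [3H]prazosin are incubated with compound in 50 mM Tris-HCl (pH 7.4, 0.5 mM EDTA) at 25° C for 60 min. Activity is reported as percent inhibition.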

[3] = target: T3, human recombinant adrenergic α2A receptor (Homo sapiens, UniProt P08913); experiment: Radioligand binding, adrenergic α2A ([3H]MK-912); details: for Percentage inhibition of ligand binding, Adrenergic α2A / inhibition at 0.1 µM: compound at 0.1 μM; for Percentage inhibition of ligand binding, Adrenergic α2A / inhibition at 0.1 µM / inhibition at 0.03 µM: [3H]MK-912, repeat assays, each datapoint shown; for Percentage inhibition of ligand binding, Adrenergic α2A: 0.1 µM; for inhibition at 0.1 µM / inhibition at 0.03 µM: read-out: Percentage inhibition of ligand binding, Adrenergic α2A; for inhibition at 0.03 µM: compound at 0.03 μM
T3 construct: expressed in transfected cells; host or cells: insect Sf9 cells
T3 sequence (P08913 1-465): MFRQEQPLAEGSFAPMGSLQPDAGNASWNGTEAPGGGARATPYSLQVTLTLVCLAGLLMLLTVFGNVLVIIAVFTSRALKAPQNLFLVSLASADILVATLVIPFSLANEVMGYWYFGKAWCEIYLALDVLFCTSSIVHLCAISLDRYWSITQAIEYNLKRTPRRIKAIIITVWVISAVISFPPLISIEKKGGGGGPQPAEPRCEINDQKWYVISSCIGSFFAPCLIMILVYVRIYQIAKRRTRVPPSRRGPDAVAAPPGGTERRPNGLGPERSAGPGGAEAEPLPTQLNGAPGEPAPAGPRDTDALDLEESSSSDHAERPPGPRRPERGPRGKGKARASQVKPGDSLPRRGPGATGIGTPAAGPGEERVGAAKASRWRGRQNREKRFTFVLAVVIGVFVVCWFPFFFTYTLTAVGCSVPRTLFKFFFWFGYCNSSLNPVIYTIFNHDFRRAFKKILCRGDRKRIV
How it was run: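 Displacement of 1 nM [3H]MK-912 from receptor produced in insect Sf9 cells was measured after 60 min at 25 °C. Readout: percent inhibition of specific binding.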

| Percentage inhibition of ligand binding, Adrenergic α2B ([1]; compound at 0.03 μM, 0.03 µM) | Percentage inhibition of ligand binding, Adrenergic α1B [2] | Percentage inhibition of ligand binding, Adrenergic α2A [3] [%] | Percentage inhibition of ligand binding, Adrenergic α2B ([1]; compound at 0.1 μM, 0.1 µM) [%] | Ki [1] [µM] | Ki [3] [µM] | inhibition at 0.1 µM [3] [%] | inhibition at 0.03 µM ([1]; compound at 0.03 μM) [%] | inhibition at 0.03 µM [2] [%] | inhibition at 0.1 µM [2] [%] | inhibition at 0.03 µM [3] [%] | Structure (SMILES) |
| --- | --- | --- | --- | --- | --- | --- | --- | --- | --- | --- | --- |
| 6% and 11% | −2% | 0 | – | – | – | – | – | – | – | – | Cc1cnc2c(c1)c1c(n2CC(C)(O)c2cccnc2)CCN2CCCC12 (single isomer, unassigned) [26d] |
| 30% and 36% | 6% and 16% | – | 48 | 0.0434 | 3.71 | – | – | – | – | – | Cc1ccc2c(c1)c1c(n2CC(N)c2ccncc2)CCN(C)C1 (single isomer, unassigned) [27b, 2-(1,2,3,4-tetrahydro-2,8-dimethylpyrido[4,3-b]indol-5-yl)-1-(pyridin-4-yl)ethanamine] |
| 96% | 41% | – | – | – | – | 28 | – | – | – | – | CN1CCc2c(n(CC(C)(O)c3cccnc3)c3ccc(Cl)cc23)C1 (single isomer, unassigned) [28a] |
| 37% | 20% | 24 | – | – | – | – | – | – | – | – | CN1CCc2c(n(CC(C)(O)c3cccnc3)c3ccc(Cl)cc23)C1 (single isomer, unassigned) [28b] |
| 100% | 38% | 39 | – | 0.00109 | 0.0772 | 35 | 98 | 19 | 32 | 16 | Cc1ccc2c(c1)c1c(n2CC(C)(O)c2ccc(C)nc2)CCN(C)C1 (single isomer, unassigned) [29a] |
| 102% | 91% | 75 | – | 0.00113 | 0.0142 | 74 | 100 | 68 | 89 | 42 | Cc1ccc2c(c1)c1c(n2CC(O)c2ccc(F)cc2)CCN(C)C1 (single isomer, unassigned) [30b] |
| 97% | 28% | 27 | – | 0.00158 | 0.167 | 19 | 93 | 16 | 25 | 11 | CN1CCc2c(c3cc(Cl)ccc3n2CC(C)(O)c2cccnc2)C1 (single isomer, unassigned) [31a] |
| 33% | – | 8 | – | – | – | – | – | – | 14 | – | CCC1c2c(c3cc(C)ccc3n2CC(O)c2ccncc2)C2CCN1C2 (single isomer, unassigned) [36a] |
| −1% | 11% | 0 | – | – | – | – | – | – | – | – | CCC1c2c(c3cc(C)ccc3n2CC(O)c2ccncc2)C2CCN1C2 (single isomer, unassigned) [36b] |
| 2% | −5% | 18 | – | – | – | – | – | – | – | – | OC(Cn1c2c(c3cccnc31)CN1CCCC1C2)c1ccncc1 (single isomer, unassigned) [37a] |
| −3% | −10% | −20 | – | – | – | – | – | – | – | – | OC(Cn1c2c(c3cccnc31)CN1CCCC1C2)c1ccncc1 (single isomer, unassigned) [37b] |
| 0% | 2% | 6 | – | – | – | – | – | – | – | – | OC(Cn1c2c(c3cccnc31)CN1CCCC1C2)c1ccncc1 (single isomer, unassigned) [37c] |
| −3% | 2% | 8 | – | – | – | – | – | – | – | – | OC(Cn1c2c(c3cccnc31)CN1CCCC1C2)c1ccncc1 (single isomer, unassigned) [37d] |
| 35% | 11% | 14 | – | – | – | – | – | – | – | – | Cc1ccc2c(c1)c1c(n2CC(O)c2ccncc2)C(C)N2CCC1C2 (single isomer, unassigned) [38a] |
| 17% | 20% | −1 | – | – | – | – | – | – | – | – | Cc1ccc2c(c1)c1c(n2CC(O)c2ccncc2)C(C)N2CCC1C2 (single isomer, unassigned) [38b] |
| 28% | – | – | – | – | – | 1 | – | – | 24 | – | Cc1ccc2c(c1)c1c(n2CC(O)c2ccncc2)CCNC1 (single isomer, unassigned) [39b, 2-(8-methyl-1,2,3,4-tetrahydro-pyrido[4,3-b]indol-5-yl)-1-pyridin-4-yl-ethanol] |
| – | 2% | – | – | – | – | 7 | 27 | – | – | – | CN1CCc2c(c3ccc(C(F)(F)F)cc3n2CC(O)c2cccnc2)C1 (single isomer, unassigned) [40a] |
| 29% | −2% | 13 | – | – | – | – | – | – | – | – | CN1CCc2c(c3ccc(C(F)(F)F)cc3n2CC(O)c2cccnc2)C1 (single isomer, unassigned) [40b] |
